In paper PMC3288743 (Bioorganic & medicinal chemistry letters, 2012):

Tests used:
haspin [1] = target: T1, haspin (Homo sapiens, UniProt Q8TF76); test: TR-FRET haspin kinase inhibition assay; type: biochemical
T1 sequence (Q8TF76 1-798): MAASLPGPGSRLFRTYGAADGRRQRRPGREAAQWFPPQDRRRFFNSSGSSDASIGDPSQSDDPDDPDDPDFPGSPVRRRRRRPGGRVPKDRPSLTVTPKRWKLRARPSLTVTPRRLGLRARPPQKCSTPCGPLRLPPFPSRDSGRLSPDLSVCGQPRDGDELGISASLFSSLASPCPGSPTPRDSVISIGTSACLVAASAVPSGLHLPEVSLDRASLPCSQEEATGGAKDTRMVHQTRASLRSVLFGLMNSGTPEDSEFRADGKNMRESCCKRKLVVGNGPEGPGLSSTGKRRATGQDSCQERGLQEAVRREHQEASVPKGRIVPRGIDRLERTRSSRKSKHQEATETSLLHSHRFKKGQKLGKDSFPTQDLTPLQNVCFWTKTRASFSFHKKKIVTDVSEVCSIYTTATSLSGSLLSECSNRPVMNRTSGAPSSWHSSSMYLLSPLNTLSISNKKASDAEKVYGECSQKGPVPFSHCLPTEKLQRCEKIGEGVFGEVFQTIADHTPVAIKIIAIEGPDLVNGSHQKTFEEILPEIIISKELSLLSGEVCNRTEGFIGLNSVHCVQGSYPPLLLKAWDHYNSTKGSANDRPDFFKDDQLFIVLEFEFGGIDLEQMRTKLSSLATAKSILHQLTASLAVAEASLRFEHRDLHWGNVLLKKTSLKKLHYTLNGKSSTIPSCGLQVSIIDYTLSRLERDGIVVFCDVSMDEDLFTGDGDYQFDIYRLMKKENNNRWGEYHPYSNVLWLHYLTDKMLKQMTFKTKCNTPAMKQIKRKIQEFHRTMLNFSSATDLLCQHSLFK

mouse xenograft model = conditions: cited from earlier work
DYRK1A = DYRK1A (Homo sapiens, UniProt Q13627); test: kinase panel profiling; type: biochemical; conditions: read-out: inhibition of DYRK1A
PKD3 = target: T2, PKD3 (Homo sapiens, UniProt O94806); test: kinase panel profiling; type: biochemical; conditions: read-out: inhibition of PKD3
T2 sequence (O94806 1-890): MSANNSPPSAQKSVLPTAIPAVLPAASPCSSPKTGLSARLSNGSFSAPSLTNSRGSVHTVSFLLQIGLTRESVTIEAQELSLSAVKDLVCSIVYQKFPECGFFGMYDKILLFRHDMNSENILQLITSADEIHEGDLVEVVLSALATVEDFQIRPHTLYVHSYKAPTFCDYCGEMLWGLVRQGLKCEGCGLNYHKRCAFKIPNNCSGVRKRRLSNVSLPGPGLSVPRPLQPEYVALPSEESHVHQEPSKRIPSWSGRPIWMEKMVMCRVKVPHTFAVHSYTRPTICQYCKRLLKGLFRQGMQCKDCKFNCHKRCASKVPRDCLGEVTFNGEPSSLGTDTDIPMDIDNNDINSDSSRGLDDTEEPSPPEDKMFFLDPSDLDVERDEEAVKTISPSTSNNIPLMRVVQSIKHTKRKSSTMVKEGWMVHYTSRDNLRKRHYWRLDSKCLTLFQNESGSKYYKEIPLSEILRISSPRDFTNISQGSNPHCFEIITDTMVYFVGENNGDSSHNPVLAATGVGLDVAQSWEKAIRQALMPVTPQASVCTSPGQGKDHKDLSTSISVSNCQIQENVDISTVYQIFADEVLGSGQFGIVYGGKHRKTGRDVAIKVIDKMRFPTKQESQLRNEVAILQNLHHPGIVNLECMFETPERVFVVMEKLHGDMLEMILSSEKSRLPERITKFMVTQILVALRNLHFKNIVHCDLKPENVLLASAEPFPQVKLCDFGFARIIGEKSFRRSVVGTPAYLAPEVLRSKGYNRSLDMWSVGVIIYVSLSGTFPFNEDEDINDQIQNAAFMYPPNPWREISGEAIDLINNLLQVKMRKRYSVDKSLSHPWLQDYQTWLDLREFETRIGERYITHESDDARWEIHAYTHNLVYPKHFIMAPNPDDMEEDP

CaMK2d = CaMK2d (Homo sapiens, UniProt Q13557); test: kinase panel profiling; type: biochemical; conditions: read-out: inhibition of CaMK2d
Sequence of CaMK2d (Q13557 whole entry, species assumed): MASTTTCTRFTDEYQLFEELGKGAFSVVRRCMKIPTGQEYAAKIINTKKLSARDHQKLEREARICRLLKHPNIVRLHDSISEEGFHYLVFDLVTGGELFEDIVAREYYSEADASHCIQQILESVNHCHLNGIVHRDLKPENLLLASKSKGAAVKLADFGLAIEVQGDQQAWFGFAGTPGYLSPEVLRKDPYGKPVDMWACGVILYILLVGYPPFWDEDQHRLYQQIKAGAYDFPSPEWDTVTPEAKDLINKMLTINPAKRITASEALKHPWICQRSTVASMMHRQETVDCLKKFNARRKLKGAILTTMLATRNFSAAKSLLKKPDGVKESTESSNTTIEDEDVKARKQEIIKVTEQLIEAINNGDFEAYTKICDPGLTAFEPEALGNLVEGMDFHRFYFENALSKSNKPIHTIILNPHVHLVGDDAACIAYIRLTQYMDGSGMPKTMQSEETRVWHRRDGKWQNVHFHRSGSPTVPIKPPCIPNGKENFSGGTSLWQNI

haspin [2] = target: T1, haspin; test: biochemical; conditions: read-out: inhibition of haspin
CLK2 = CLK2 (Homo sapiens, UniProt P49760); test: kinase panel profiling; type: biochemical; conditions: read-out: inhibition of CLK2
Sequence of CLK2 (P49760 whole entry, species assumed): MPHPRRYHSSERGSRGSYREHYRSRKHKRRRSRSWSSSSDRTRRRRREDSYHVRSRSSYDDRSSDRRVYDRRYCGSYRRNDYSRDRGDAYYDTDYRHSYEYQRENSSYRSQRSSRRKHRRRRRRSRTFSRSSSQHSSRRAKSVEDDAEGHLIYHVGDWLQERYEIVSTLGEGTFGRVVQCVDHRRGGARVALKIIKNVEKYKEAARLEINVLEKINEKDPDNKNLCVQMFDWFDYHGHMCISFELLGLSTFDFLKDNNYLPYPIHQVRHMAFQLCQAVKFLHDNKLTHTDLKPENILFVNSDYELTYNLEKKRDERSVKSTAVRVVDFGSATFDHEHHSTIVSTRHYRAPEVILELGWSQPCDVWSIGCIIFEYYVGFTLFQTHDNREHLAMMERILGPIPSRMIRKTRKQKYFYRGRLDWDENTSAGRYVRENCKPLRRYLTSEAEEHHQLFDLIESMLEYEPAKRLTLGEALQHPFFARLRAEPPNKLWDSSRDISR

PIM1 = PIM1 (Homo sapiens, UniProt P11309); test: kinase panel profiling; type: biochemical; conditions: read-out: inhibition of PIM1
Sequence of PIM1 (P11309 whole entry, species assumed): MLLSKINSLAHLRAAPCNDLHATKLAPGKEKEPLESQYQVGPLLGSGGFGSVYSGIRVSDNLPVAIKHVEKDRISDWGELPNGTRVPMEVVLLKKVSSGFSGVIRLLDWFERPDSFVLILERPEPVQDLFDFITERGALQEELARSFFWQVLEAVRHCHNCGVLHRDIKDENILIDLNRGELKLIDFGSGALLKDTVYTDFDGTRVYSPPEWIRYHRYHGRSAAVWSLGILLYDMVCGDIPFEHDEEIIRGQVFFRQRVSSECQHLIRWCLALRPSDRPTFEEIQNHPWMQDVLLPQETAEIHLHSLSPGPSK

CDK7-CycH-Mat1 = CDK7-CycH-Mat1 (Homo sapiens, UniProt P50613); test: kinase panel profiling; type: biochemical; conditions: read-out: inhibition of CDK7-CycH-Mat1
Sequence of CDK7-CycH-Mat1 (P50613 whole entry): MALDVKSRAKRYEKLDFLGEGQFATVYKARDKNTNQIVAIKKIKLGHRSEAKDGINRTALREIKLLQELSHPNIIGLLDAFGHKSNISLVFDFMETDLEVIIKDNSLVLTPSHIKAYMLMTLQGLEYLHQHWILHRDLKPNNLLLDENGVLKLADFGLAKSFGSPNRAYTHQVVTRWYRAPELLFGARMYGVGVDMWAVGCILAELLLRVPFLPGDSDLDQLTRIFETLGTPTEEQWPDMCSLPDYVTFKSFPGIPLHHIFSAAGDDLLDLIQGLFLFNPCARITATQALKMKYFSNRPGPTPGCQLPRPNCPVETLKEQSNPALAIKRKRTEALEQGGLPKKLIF
Sequence of CDK7-CycH-Mat1 (P51946 whole entry partner): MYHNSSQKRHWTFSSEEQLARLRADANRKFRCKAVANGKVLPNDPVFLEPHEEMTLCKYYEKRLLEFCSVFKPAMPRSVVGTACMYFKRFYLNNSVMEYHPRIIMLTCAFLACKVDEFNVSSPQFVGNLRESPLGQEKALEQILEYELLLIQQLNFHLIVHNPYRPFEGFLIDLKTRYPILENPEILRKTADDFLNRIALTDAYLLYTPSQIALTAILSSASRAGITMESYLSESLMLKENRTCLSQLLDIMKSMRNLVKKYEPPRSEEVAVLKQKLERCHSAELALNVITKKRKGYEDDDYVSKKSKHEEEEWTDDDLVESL
Sequence of CDK7-CycH-Mat1 (P51948 whole entry partner): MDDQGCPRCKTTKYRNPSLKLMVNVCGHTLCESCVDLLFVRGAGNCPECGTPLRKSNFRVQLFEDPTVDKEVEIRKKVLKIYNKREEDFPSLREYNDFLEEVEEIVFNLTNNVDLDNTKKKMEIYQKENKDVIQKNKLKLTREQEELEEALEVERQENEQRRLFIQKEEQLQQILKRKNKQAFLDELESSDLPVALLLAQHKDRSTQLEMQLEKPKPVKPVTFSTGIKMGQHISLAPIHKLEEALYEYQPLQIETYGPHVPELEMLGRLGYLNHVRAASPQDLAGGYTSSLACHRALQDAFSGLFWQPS

DYRK1B = DYRK1B (Homo sapiens, UniProt Q9Y463); test: kinase panel profiling; type: biochemical; conditions: read-out: inhibition of DYRK1B
CLK1 = CLK1 (Homo sapiens, UniProt P49759); test: kinase panel profiling; type: biochemical; conditions: read-out: inhibition of CLK1
DYRK3 = target: T3, DYRK3 (Homo sapiens, UniProt O43781); test: kinase panel profiling; type: biochemical; conditions: read-out: inhibition of DYRK3
T3 sequence (O43781 1-588): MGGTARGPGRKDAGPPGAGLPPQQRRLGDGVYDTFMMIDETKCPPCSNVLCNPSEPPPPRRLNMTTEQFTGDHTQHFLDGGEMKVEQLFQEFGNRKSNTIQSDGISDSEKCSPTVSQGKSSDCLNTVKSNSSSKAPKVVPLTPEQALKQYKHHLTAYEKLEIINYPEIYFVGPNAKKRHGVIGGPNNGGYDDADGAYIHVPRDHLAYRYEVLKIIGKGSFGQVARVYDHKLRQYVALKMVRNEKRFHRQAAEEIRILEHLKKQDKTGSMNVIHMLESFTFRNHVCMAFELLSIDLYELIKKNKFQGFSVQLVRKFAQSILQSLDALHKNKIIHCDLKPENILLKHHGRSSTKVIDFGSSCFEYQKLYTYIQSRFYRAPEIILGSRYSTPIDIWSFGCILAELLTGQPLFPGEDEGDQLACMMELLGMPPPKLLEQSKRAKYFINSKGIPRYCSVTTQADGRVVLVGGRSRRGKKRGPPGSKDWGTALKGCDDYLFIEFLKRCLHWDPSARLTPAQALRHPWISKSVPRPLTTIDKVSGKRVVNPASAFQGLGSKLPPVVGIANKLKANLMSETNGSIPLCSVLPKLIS

PASK = PASK (Homo sapiens, UniProt Q96RG2); test: kinase panel profiling; type: biochemical; conditions: read-out: inhibition of PASK
Sequence of PASK (Q96RG2 whole entry): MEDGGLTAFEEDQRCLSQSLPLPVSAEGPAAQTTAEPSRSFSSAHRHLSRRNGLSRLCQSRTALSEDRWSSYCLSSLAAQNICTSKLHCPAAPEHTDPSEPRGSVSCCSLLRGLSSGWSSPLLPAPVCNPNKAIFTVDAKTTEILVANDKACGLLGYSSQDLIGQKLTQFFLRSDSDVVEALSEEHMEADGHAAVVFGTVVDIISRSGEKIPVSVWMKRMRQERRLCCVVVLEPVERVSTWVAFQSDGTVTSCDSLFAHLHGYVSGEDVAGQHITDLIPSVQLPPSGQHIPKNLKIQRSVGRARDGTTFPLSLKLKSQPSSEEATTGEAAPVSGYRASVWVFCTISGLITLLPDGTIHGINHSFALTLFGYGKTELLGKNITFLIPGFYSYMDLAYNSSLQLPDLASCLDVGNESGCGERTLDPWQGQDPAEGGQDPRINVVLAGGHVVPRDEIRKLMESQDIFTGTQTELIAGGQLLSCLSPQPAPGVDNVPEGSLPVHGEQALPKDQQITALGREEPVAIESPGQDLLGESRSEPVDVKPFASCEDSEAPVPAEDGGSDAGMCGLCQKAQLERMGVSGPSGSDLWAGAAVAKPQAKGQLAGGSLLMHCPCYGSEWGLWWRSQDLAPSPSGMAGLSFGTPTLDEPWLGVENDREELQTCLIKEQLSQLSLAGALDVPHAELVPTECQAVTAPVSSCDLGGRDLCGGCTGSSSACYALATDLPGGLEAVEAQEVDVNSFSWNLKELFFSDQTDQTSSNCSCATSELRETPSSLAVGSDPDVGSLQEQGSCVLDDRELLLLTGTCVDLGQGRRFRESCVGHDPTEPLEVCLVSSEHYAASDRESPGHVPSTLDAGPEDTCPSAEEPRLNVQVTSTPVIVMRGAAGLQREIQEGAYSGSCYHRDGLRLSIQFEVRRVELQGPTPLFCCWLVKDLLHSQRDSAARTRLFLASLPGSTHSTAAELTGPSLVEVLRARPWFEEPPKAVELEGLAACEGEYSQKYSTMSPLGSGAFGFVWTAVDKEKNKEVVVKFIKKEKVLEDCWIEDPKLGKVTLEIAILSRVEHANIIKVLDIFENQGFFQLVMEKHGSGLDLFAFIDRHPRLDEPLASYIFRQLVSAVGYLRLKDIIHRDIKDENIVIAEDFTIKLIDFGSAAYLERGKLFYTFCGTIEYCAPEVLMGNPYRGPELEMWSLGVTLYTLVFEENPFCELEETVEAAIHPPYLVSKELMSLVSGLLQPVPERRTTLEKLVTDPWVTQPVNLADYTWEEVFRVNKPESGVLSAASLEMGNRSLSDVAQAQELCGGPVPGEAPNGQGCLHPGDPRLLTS

CaMK2b = CaMK2b (Homo sapiens, UniProt Q13554); test: kinase panel profiling; type: biochemical; conditions: read-out: inhibition of CaMK2b
Sequence of CaMK2b (Q13554 whole entry, species assumed): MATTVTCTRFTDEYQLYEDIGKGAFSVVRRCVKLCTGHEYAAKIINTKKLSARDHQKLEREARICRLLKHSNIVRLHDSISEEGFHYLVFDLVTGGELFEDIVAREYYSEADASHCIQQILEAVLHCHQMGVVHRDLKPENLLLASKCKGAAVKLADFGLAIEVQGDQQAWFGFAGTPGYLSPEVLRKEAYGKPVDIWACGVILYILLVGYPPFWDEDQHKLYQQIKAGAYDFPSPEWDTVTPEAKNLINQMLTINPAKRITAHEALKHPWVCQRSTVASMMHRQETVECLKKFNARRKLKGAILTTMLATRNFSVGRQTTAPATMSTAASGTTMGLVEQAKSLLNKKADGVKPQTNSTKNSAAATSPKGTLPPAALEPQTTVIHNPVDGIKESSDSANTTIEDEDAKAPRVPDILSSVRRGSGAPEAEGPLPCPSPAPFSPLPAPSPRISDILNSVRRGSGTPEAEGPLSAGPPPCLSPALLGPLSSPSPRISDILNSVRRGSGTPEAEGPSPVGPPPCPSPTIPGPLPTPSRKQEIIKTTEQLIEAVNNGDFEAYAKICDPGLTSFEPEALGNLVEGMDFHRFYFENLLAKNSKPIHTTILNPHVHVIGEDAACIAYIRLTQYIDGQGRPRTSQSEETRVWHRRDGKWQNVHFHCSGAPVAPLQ

CK1d = CK1d (Homo sapiens, UniProt P48730); test: kinase panel profiling; type: biochemical; conditions: read-out: inhibition of CK1d
Sequence of CK1d (P48730 whole entry): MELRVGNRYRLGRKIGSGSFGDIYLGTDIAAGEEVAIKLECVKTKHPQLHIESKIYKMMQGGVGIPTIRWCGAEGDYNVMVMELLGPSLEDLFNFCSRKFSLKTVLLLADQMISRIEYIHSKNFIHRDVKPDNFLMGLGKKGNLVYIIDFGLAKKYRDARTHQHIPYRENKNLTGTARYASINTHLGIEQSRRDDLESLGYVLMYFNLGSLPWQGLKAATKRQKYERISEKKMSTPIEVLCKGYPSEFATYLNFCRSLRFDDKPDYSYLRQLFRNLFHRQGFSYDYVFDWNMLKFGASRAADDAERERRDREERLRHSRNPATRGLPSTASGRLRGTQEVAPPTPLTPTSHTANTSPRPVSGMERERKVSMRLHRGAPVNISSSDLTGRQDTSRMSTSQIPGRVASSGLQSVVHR

cGK2 = target: T4, cGK2 (Homo sapiens, UniProt Q13237); test: kinase panel profiling; type: biochemical; conditions: read-out: inhibition of cGK2
T4 sequence (Q13237 1-762): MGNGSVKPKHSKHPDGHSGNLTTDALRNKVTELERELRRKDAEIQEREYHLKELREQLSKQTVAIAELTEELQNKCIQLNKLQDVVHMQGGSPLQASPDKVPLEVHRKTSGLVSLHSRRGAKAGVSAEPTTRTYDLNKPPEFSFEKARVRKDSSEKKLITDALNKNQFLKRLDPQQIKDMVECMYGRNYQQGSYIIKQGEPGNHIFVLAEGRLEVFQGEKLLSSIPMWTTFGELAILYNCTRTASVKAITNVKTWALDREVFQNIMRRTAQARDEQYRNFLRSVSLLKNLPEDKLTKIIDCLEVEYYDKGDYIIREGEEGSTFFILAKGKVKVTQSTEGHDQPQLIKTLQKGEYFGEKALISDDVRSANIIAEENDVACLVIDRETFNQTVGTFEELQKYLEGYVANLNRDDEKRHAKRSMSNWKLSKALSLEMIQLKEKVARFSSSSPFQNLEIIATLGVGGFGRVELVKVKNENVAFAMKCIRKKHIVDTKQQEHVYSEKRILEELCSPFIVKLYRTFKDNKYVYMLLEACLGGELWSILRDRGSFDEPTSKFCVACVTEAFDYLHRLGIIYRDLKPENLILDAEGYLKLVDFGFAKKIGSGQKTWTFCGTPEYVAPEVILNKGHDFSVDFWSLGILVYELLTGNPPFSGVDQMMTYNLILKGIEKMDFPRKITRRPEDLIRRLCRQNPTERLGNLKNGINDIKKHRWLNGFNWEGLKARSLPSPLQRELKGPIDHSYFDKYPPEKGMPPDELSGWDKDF

For `Cc1nccc2c1[nH]c1cc(OCCCN)ccc12` [7a], the “haspin inhibition at 10 µM” value (haspin [1]) was “inactive”.
In the case of `CCCNc1ccc2ncc(-c3ccc4[nH]ncc4c3)n2n1` [CHR-6494], the anti-tumor activity (mouse xenograft model) is given as “displayed anti-tumor activity”.
For `Cc1nccc2c1[nH]c1cc(OCCCCN)ccc12` [7b], the “haspin inhibition at 10 µM” value (haspin [1]) was “inactive”.
`COc1ccc2c3ccnc(C(F)(F)F)c3n(CCCCN)c2c1` [compound 42] gave an inhibition at 10 µM (DYRK1A) of no less than 90%, an inhibition at 10 µM (PKD3) of no less than 90% and an inhibition at 10 µM (CaMK2d) of no less than 90%. The inhibition at 10 µM (haspin [2]) was no less than 90%, the inhibition at 10 µM (CLK2) was no less than 90% and the inhibition at 10 µM (PIM1) was no less than 90%. It also gave an inhibition at 10 µM (CDK7-CycH-Mat1) of no less than 90%, an inhibition at 10 µM (DYRK1B) of no less than 90% and an inhibition at 10 µM (CLK1) of no less than 90%. The inhibition at 10 µM (DYRK3) was no less than 90%, the inhibition at 10 µM (PASK) was no less than 90% and the inhibition at 10 µM (CaMK2b) was no less than 90%. It also gave an inhibition at 10 µM (CK1d) of no less than 90% and an inhibition at 10 µM (cGK2) of no less than 90%.
